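These data come from cells grown in 96-well plates and exposed to compound for 48 hours at five concentrations. GI50 is the concentration that inhibits growth by half.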 Active and inactive are the calls of the source. No stated cut-off is given here; in the data, active = GI50 up to about 1.1 µM and inactive = higher. Square brackets hold non-standard residues; d marks the D form. Peptide text beside a SMILES is read from it. * marks the point of attachment. Bn2Val = CC(C)[C@@H](C(=O)*)N(Cc1ccccc1)Cc1ccccc1; NH(3,4-diMeO-benzyl) = COc1ccc(CN*)cc1OC; NMeV = CN[C@H](C(=O)O)C(C)C; dNMeA = CN[C@H](C)C(=O)O Bounds are passed on as bounds.

Results on 12 compounds are retold here after ChEMBL document CHEMBL1201862, “PubChem BioAssay data set” (2004).

Assay in all cases: inhibition of tumour cell growth, NCI panel, 48 h
For assay [1], the system named is OVCAR-8.
The test system of assay [2] is U-251.
The subject of assay [3] is SNB-19.
In assay [4] the test system is UACC-62.
Assay [5] has as its system NCI-H226.
Assay [6] has as its system UO-31.
Assay [7] relates to OVCAR-3.
The subject of assay [8] is HCT-116.
In assay [9] the test system is SNB-75.
Assay [10] relates to UACC-257.
For assay [11], the system named is COLO 205.
For assay [12], the system named is M19-MEL.
In assay [13] the test system is SF-539.
The test system of assay [14] is HOP-62.
Assay [15] relates to NCI-H460.
For assay [16], the system named is HCC 2998.
Assay [17] concerns OVCAR-4.
For assay [18], the system named is PC-3.
Assay [19] has as its system MCF7.
The test system of assay [20] is MDA-MB-435.

On to `Cc1ccccc1NC(=O)c1cc2cc(/N=N/c3ccccc3C(=O)O)ccc2oc1=O`, for which the GI50 was 29.6 µM (inactive) in assay [1]; 21.4 µM (inactive) in assay [2]; > 10 µM (inactive) in assay [3]; 4.7 µM (inactive) in [4]; 20.8 µM (inactive) in [5]; 20.6 µM (inactive) in [6]. In addition, the GI50 in assay [7] is 34.8 µM (inactive); in [8], 20.7 µM (inactive); in assay [9], 11.5 µM (inactive); in assay [10], 10.3 µM (inactive); in assay [11], 12.9 µM (inactive); in [12], 9.38 µM (inactive). The GI50 in [13] is 18 µM (inactive); in [14] it was 21.4 µM (inactive); in assay [15], 21.1 µM (inactive).

On to `Cc1ccc(S(=O)(=O)OCC23CCC(CC2)C2CC23)cc1` (stereo not drawn), for which the GI50 is 59.3 µM (inactive) in [1]; > 100 µM (inactive) in [16]; 50.9 µM (inactive) in [2]; 96.6 µM (inactive) in [3]; > 100 µM (inactive) in assay [4]; 61.2 µM (inactive) in assay [5]. Also, the GI50 in [6] is 34.4 µM (inactive); in [7] it was 31.9 µM (inactive); in assay [8], 53.8 µM (inactive); in assay [9] it was 3.62 µM (inactive); in assay [10], 28.6 µM (inactive); in assay [11], 61.8 µM (inactive). For the same compound, the GI50 is 43.2 µM (inactive) in [12], 46 µM (inactive) in assay [17], 48.3 µM (inactive) in assay [14] and 42.4 µM (inactive) in assay [15].

Consider `O=C(O)C1=C(C(=O)Nc2ccc(NC(=O)C3=C(C(=O)O)C4C=CC3C4)cc2)C2C=CC1C2`, for which the GI50 in [1], in assay [16], in [2], in [3], in [4] and in assay [6] was > 100 µM (inactive) each time. Also, the GI50 in assay [7], in assay [8], in assay [9], in [10], in assay [11] and in assay [12] was > 100 µM (inactive) in each case. For the same compound, the GI50 in assay [17], in [13], in assay [14] and in assay [15] was > 100 µM (inactive) throughout.

For `CC1=C(C(=O)CC(=O)C(=O)NC2C3CC4CC(C3)CC2C4)Sc2ccccc2N1` (stereo not drawn), the GI50 was > 100 µM (inactive) in assay [1]; > 100 µM (inactive) in assay [16]; > 100 µM (inactive) in assay [2]; > 100 µM (inactive) in [3]; > 100 µM (inactive) in assay [4]; > 60.3 µM (inactive) in [6]. Moreover, the GI50 in assay [7] was > 100 µM (inactive); in [9], > 100 µM (inactive); in [10], > 100 µM (inactive); in assay [11] it was > 31.6 µM (inactive); in [12] it was > 100 µM (inactive); in [17], > 100 µM (inactive). Besides, the GI50 in [13], in assay [14] and in [15] was > 100 µM (inactive) each time.

Turning to `Cc1nn2c(=O)c([N+](=O)[O-])c(/C=C/c3ccccc3)nc2s1`, the GI50 in assay [1] is 2.17 µM (inactive); in assay [16], 8.13 µM (inactive); in assay [2] it was 2.42 µM (inactive); in assay [3], 4.06 µM (inactive); in assay [4] it was 5.33 µM (inactive); in assay [5], 3.07 µM (inactive). Also, the GI50 in [6] is 5.83 µM (inactive); in assay [7], 4.95 µM (inactive); in assay [8], 3.42 µM (inactive); in [9], 2.93 µM (inactive); in [18], 4.13 µM (inactive); in assay [10] it was 8.57 µM (inactive). The GI50 in [11] is 5.14 µM (inactive); in assay [19], 1.61 µM (inactive); in [17], 10.5 µM (inactive); in assay [13], 2.3 µM (inactive); in assay [14], 5.43 µM (inactive); in [15] it was 5.61 µM (inactive). In assay [20], the GI50 is 2 µM (inactive).

`CCN(CC)C(=O)CC12CCCCC1=Nc1ccccc12` (stereo not drawn): the GI50 in assay [1], in assay [16], in assay [2], in [4], in assay [7] and in assay [8] was > 100 µM (inactive) each time. Further, the GI50 in assay [9], in assay [10], in assay [11], in [12], in assay [17] and in assay [13] was > 100 µM (inactive) each time. Also, the GI50 in assay [14] and in [15] was > 100 µM (inactive) each time.

On to `Cn1ccnc1Cn1cc(-c2cccc(-c3cn[nH]c3)c2)cn1`, for which the GI50 in assay [1] was > 100 µM (inactive); in assay [16], > 100 µM (inactive); in [2], 84.5 µM (inactive); in assay [3], > 100 µM (inactive); in assay [4], 9.23 µM (inactive); in assay [6], 19.2 µM (inactive). Further, the GI50 was > 100 µM (inactive) in assay [7]; 50.7 µM (inactive) in [8]; 23.2 µM (inactive) in assay [9]; > 100 µM (inactive) in assay [10]; > 100 µM (inactive) in assay [11]; > 100 µM (inactive) in assay [12]. Further, the figures for the GI50 in assay [17], in [14] and in assay [15] were 55.2 µM (inactive), > 100 µM (inactive) and > 100 µM (inactive), respectively.

In the case of `COc1cc2c(cc1O)CN1CCC23C=C[C@@H](O)CC13` (stereo partly drawn), the GI50 was 38.1 µM (inactive) in assay [1]; 56.9 µM (inactive) in assay [16]; 46.7 µM (inactive) in assay [2]; 55.6 µM (inactive) in [3]; > 100 µM (inactive) in assay [4]; 76.4 µM (inactive) in assay [5]. Moreover, the GI50 in assay [6] was > 100 µM (inactive); in assay [7], > 100 µM (inactive); in [8], 34.1 µM (inactive); in assay [9], 59.4 µM (inactive); in assay [10], 79.4 µM (inactive); in [11], 27.7 µM (inactive). In addition, the GI50 is 38.1 µM (inactive) in [12], 33.2 µM (inactive) in assay [17], > 100 µM (inactive) in assay [14] and 62.8 µM (inactive) in [15].

For `c1cc(-c2ccc(-c3nc4ccc(C5=NCCN5)cc4s3)s2)ccc1C1=NCCN1`, the GI50 in [1] is 0.296 µM (active); in assay [16] it was 0.0292 µM (active); in assay [2], 0.222 µM (active); in assay [3] it was 0.618 µM (active); in assay [4] it was 1.12 µM (inactive); in assay [5], 0.308 µM (active). For the same compound, the GI50 in assay [6] was 1.02 µM (active); in assay [7], 0.979 µM (active); in [8], 0.351 µM (active); in assay [9], 0.222 µM (active); in assay [18] it was 0.805 µM (active); in assay [10], 22.5 µM (inactive). In addition, the GI50 in assay [11] was 1.11 µM (active); in [19], 0.0372 µM (active); in [17] it was 0.182 µM (active); in assay [13] it was 0.296 µM (active); in [14], 0.187 µM (active); in assay [15] it was 0.286 µM (active). Besides, the GI50 in assay [20] was 0.841 µM (active).

On to `O=C1C(c2ccc([N+](=O)[O-])cc2)=[N+]([O-])c2ccccc21`, for which the GI50 was 4.31 µM (inactive) in assay [1]; 16.5 µM (inactive) in [2]; < 0.01 µM (active) in assay [3]; 19.2 µM (inactive) in assay [4]; 34.9 µM (inactive) in assay [5]; 29.4 µM (inactive) in [6]. The GI50 is 19.9 µM (inactive) in [7]; 25.8 µM (inactive) in assay [8]; 30.6 µM (inactive) in [9]; 11.1 µM (inactive) in assay [11]; 17.2 µM (inactive) in assay [12]; 9.51 µM (inactive) in assay [17]. For the same compound, the GI50 in assay [13] is 37.9 µM (inactive); in assay [14], 32.4 µM (inactive); in assay [15] it was 37 µM (inactive).

Regarding `COc1ccc(CNC(=O)[C@@H](C)N(C)C(=O)[C@@H]2CCCN2C(=O)[C@H](C(C)C)N(C)C(=O)[C@@H](NC(=O)[C@H](C(C)C)N(Cc2ccccc2)Cc2ccccc2)C(C)C)cc1OC` (Bn2Val-V[NMeV]P[dNMeA]-{NH(3,4-diMeO-benzyl)}), the GI50 in assay [1] was 14.1 µM (inactive); in [16], 7.1 µM (inactive); in assay [2], 7.6 µM (inactive); in assay [3], 7.48 µM (inactive); in [4] it was 7.01 µM (inactive); in assay [5], 6.58 µM (inactive). Also, the GI50 in assay [6] was > 100 µM (inactive); in assay [7], 5.9 µM (inactive); in [8], 6.76 µM (inactive); in assay [9], 6.43 µM (inactive); in [18], 3.61 µM (inactive); in [10] it was 7.43 µM (inactive). Also, the GI50 in assay [11] was 6.55 µM (inactive); in [19], 4.33 µM (inactive); in assay [17], 12.6 µM (inactive); in assay [13] it was 7.89 µM (inactive); in [14], 8 µM (inactive); in [15], 9.73 µM (inactive). The GI50 in assay [20] was 8.63 µM (inactive).

Regarding `C[C@@H]1CC[C@@]2(C)[C@H](C)/C(=C\COC(=O)/C=C/c3ccc(O)c(O)c3)CC[C@@]12C` [NAVICULYL CAFFEATE], the GI50 in assay [1] is 9.42 µM (inactive); in assay [16], 7.67 µM (inactive); in assay [2], 5.35 µM (inactive); in assay [3], 11.5 µM (inactive); in [4], 10.3 µM (inactive); in assay [5], 6.05 µM (inactive). For the same compound, the GI50 in [6] is 8.73 µM (inactive); in assay [7], 8.63 µM (inactive); in assay [8], 2.78 µM (inactive); in assay [9], 11.9 µM (inactive); in [18], 4.71 µM (inactive); in [10], 11.8 µM (inactive). Also, the GI50 in [11] was 3.61 µM (inactive); in assay [19] it was 2.83 µM (inactive); in assay [17] it was 4.65 µM (inactive); in assay [13], 4.83 µM (inactive); in [14] it was 13.1 µM (inactive); in assay [15] it was 3.57 µM (inactive). Also, the GI50 in [20] is 3.33 µM (inactive).
